What all share (test): Inhibition of in vitro proliferation of tumor cells (CellTiter Glo)
Common to all, as to type: cell-based, human

In one test the test system is Calu-6. To be noted: Calu-6, 120 h incubation. On the procedure: (§1) Human-derived tumor cells in logarithmic growth phase were taken, trypsin-digested and resuspended using fresh complete culture medium, counted and adjusted to an appropriate concentration, and added into 96-well cell culture plate at 100 μL/well. The cell culture plate was placed in a 37° C., 5% CO2 incubator and incubated overnight. On the next day, different concentrations of ADC samples to be tested (with the highest final concentration of 1 μM, and 4-fold gradient dilution) or buffer control were added to the corresponding wells of the cell culture plate, and continued to be incubated in a CO2 incubator for 120 h. After equilibrated to room temperature, the test plate was analyzed by using a CellTiter Glo assay kit (Promega, G7558) and a multifunctional enzyme labeling instrument (Enspire 2300, PerkinElmer) to detect luminescence readings. The cellular inhibition rate was calculated according to the following equation: inhibition rate (%)=(1−(RLUADC−RLUblank)/(RLUbuffer−RLUblank))×100%, wherein, RLU represents Relative Luminescence Units. XLFit was utilized to plot the pharmacodynamic inhibition rate curve and to calculate the IC50 values (see Tables 4 and 5).

The test system of the next test is HepG2. The conditions noted are these: HepG2, 120 h incubation. On the procedure: as §1
For a further test, the system named is NCI-H1975. The conditions noted are these: NCI-H1975, 120 h incubation. On the procedure:
as §1

The subject of another test is NCI-N87. The conditions noted are these: NCI-N87, 120 h incubation. On the procedure:
as §1

As a reminder, the IC50 is the point on the concentration scale where inhibition reaches its midpoint. The low end stands for higher potency, the high end for lower potency. For “Control ADC2: antibody Ifinatamab conjugated with linker-payload MC-GGFG-DXd”, the IC50 in the test with Calu-6 stood at 126 nM; in the test on HepG2, 220 nM; in the test on NCI-H1975, 650 nM; in the test with NCI-N87, 288 nM.

The values above are taken from patent US20260041780A1, “ANTIBODY-DRUG CONJUGATE AND USE THEREOF” (MINGHUI PHARMACEUTICAL (HANGZHOU) LIMITED, priority 2022, published 2026).
